Data on 31 compounds can be found in patent publication US20100125081A1, “NEW COMPOUNDS 574” (ASTRAZENECA AB, priority 2008, published 2010).

For this assay, the target named is T1, human β-Secretase (Homo sapiens, UniProt P56817).
T1 construct: soluble part of the human β-Secretase (AA 1-AA 460); Fc domain of IgG1 (C); made in house
Put plainly: TR-FRET assay (β-secretase enzyme, sBACE-Fc). The following applies: soluble human β-secretase (AA 1-460) Fc fusion, substrate (Europium)CEVNLDAEFK(Qsy7) 100 nM, pH 4.5; unit inferred, nM taken. In kind it is biochemical. How it is done:
The β-secretase enzyme used in the TR-FRET is prepared as follows:
The cDNA for the soluble part of the human β-Secretase (AA 1-AA 460) was cloned using the ASP2-Fc10-1-IRES-GFP-neoK mammalian expression vector. The gene was fused to the Fc domain of IgG1 (affinity tag) and stably cloned into HEK 293 cells.
The enzyme (truncated form) was diluted to 6 μg/mL (stock 1.3 mg/mL) and the substrate (Europium)CEVNLDAEFK(Qsy7) to 200 nM (stock 120 μM) in reaction buffer (NaAcetate, chaps, triton x-100, EDTA pH4.5). The robotic systems Biomek FX and Velocity 11 were used for all liquid handling and the enzyme and substrate solutions were kept on ice until they were placed in the robotic system. Enzyme (9 μl) was added to the plate then 1 μl of compound in dimethylsulphoxide was added, mixed and pre-incubated for 10 minutes. Substrate (10 μl) was then added, mixed and the reaction proceeded for 15 minutes at room temperature. The reaction was stopped with the addition of Stop solution (7 μl, NaAcetate, pH 9). The fluorescence of the product was measured on a Victor II plate reader with an excitation wavelength of 340 nm and an emission wavelength of 615 nm. The assay was performed in a Costar 384 well round bottom, low volume, non-binding surface plate (Corning #3676). The final concentration of the enzyme was 2.7 μg/ml; the final concentration of substrate was 100 nM (Km of ˜250 nM). The dimethylsulphoxide control, instead of test compound, defined the 100% activity level and 0% activity was defined by wells lacking enzyme (replaced with reaction buffer).

The IC50 is the concentration that gives 50% inhibition.

Structures can show the parent of a compound that is named as a salt. Where only a bound is given, the exact number is not on record here.

T1 sequence (P56817 22-460): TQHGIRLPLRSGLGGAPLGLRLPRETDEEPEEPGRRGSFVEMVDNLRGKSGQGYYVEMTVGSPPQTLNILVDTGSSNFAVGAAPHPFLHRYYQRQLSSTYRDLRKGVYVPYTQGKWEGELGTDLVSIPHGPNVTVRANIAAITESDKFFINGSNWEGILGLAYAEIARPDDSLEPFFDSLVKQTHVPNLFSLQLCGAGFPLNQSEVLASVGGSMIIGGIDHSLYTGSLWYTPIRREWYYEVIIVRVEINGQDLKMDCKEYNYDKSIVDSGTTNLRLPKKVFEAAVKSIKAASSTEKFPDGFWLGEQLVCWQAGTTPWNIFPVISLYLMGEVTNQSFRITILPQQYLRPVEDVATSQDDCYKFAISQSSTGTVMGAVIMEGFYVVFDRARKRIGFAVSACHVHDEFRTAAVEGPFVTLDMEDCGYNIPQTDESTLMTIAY

As to `NC1=NC(c2cccc(-c3cncnc3)c2)(c2ccnc(C(F)(F)F)c2)c2cccnc21` (single isomer, unassigned) [25, Isomer 1], the IC50 is over 31600 nM. In the case of `NC1=NC(c2cccc(-c3cncnc3)c2)(c2ccnc(C(F)(F)F)c2)c2cccnc21` (single isomer, unassigned) [25, Isomer 2], half-maximal inhibition (IC50) was put at 176 nM. Regarding `NC1=NC(c2cccc(-c3cccc(Cl)c3)c2)(c2ccnc(C(F)(F)F)c2)c2cccnc21` (stereo not shown) [Example 1, 5-(3′-Chlorobiphenyl-3-yl)-5-(2-(trifluoromethyl)pyridin-4-yl)-5H-pyrrolo[3,4-b]pyridin-7-amine], the IC50 came out at 400 nM.

`NC1=NC(c2cccc(-c3cncnc3)c2)(c2ccnc(C(F)(F)F)c2)c2cccnc21` (stereo not shown) [Example 2, 5-(3-(pyrimidin-5-yl)phenyl)-5-(2-(trifluoromethyl)pyridin-4-yl)-5H-pyrrolo[3,4-b]pyridin-7-amine]: half-maximal inhibition (IC50) was put at 350 nM. The IC50 values of the last two compounds are within 1.5-fold of each other.

Compound `NC1=NC(c2cccc(-c3cccnc3)c2)(c2ccnc(C(F)(F)F)c2)c2cccnc21` (stereo not shown) [Example 3, 5-(3-(Pyridin-3-yl)phenyl)-5-(2-(trifluoromethyl)pyridin-4-yl)-5H-pyrrolo[3,4-b]pyridin-7-amine] yielded an IC50 of 560 nM. The same measure for `Cc1cc(C2(c3cccc(-c4cncnc4)c3)N=C(N)c3ncccc32)cc(C)n1` (stereo not shown) [Example 4, 5-(2,6-Dimethylpyridin-4-yl)-5-(3-(pyrimidin-5-yl)phenyl)-5H-pyrrolo[3,4-b]pyridin-7-amine]: 1800 nM; for `Cc1cc(C2(c3cccc(-c4cncc(C#N)c4)c3)N=C(N)c3ncccc32)cc(C)n1` (stereo not shown) [Example 5, 5-(3-(7-Amino-5-(2,6-dimethylpyridin-4-yl)-5H-pyrrolo[3,4-b]pyridin-5-yl)phenyl)nicotinonitrile]: 2400 nM; for `COc1c(F)cc(C2(c3ccc(F)c(-c4cncnc4)c3)N=C(N)c3ncccc32)cc1F` (stereo not shown) [Example 6, 5-(3,5-Difluoro-4-methoxyphenyl)-5-(4-fluoro-3-(pyrimidin-5-yl)phenyl)-5H-pyrrolo[3,4-b]pyridin-7-amine]: 156 nM. `COc1ccc(C2(c3cccc(-c4cncnc4)c3)N=C(N)c3ncccc32)cc1Cl` (stereo not shown) [Example 7, 5-(3-Chloro-4-methoxyphenyl)-5-(3-(pyrimidin-5-yl)phenyl)-5H-pyrrolo[3,4-b]pyridin-7-amine] gave an IC50 of 248 nM. The same measure for `COc1ccc(C2(c3cccc(-c4cnccn4)c3)N=C(N)c3ncccc32)cc1Cl` (stereo not shown) [Example 8, 5-(3-Chloro-4-methoxyphenyl)-5-(3-(pyrazin-2-yl)phenyl)-5H-pyrrolo[3,4-b]pyridin-7-amine]: 610 nM; for `NC1=NC(c2cccc(-c3cncnc3)c2)(c2ccc(OC(F)F)c(C3CC3)c2)c2cccnc21` (stereo not shown) [Example 9, 5-(3-Cyclopropyl-4-(difluoromethoxy)phenyl)-5-(3-(pyrimidin-5-yl)phenyl)-5H-pyrrolo[3,4-b]pyridin-7-amine acetic acid]: 33 nM; for `Cc1cc(C2(c3cccc(-c4cncnc4)c3)N=C(N)c3ncc(Cl)cc32)ccn1` (stereo not shown) [Example 10, 3-Chloro-5-(2-methylpyridin-4-yl)-5-(3-(pyrimidin-5-yl)phenyl)-5H-pyrrolo[3,4-b]pyridin-7-amine]: 639 nM.

The compound `COc1ccc(C2(c3cccc(-c4cncnc4)c3)N=C(N)c3ncc(C)cc32)cc1` (stereo not shown) [Example 11, 5-(4-Methoxyphenyl)-3-methyl-5-(3-(pyrimidin-5-yl)phenyl)-5H-pyrrolo[3,4-b]pyridin-7-amine] displayed an IC50 of 2120 nM. Consider `Cc1cc(C2(c3cccc(-c4cncnc4)c3)N=C(N)c3ncccc32)cc(C)c1OC(F)F` (stereo not shown) [Example 12, 5-(4-(Difluoromethoxy)-3,5-dimethylphenyl)-5-(3-(pyrimidin-5-yl)phenyl)-5H-pyrrolo[3,4-b]pyridin-7-amine], for which the IC50 was 47 nM. Turning to `Cc1cc(C2(c3cccc(-c4cnccn4)c3)N=C(N)c3ncccc32)cc(C)c1OC(F)F` (stereo not shown) [Example 13, 5-(4-(Difluoromethoxy)-3,5-dimethylphenyl)-5-(3-(pyrazin-2-yl)phenyl)-5H-pyrrolo[3,4-b]pyridin-7-amine], the IC50 was found to be 38 nM. The compound `Cc1cc(C2(c3cccc(-c4cncnc4)c3)N=C(N)c3ncccc32)cc(C)c1F` (stereo not shown) [Example 14, 5-(4-Fluoro-3,5-dimethylphenyl)-5-(3-(pyrimidin-5-yl)phenyl)-5H-pyrrolo[3,4-b]pyridin-7-amine] returned an IC50 of 593 nM. Regarding `COc1c(C)cc(C2(c3cccc(-c4cnccn4)c3)N=C(N)c3ncccc32)cc1F` (stereo not shown) [Example 15, 5-(3-Fluoro-4-methoxy-5-methylphenyl)-5-(3-(pyrazin-2-yl)phenyl)-5H-pyrrolo[3,4-b]pyridin-7-amine trifluoroacetic acid salt], the midpoint of inhibition, the IC50, lay at 96 nM. This IC50 lies about 6.2-fold lower than the previous one.

As to `NC1=NC(c2cccc(-c3cncnc3)c2)(c2ccnc(OCC(F)(F)F)c2)c2cccnc21` (stereo not shown) [Example 16, 5-(3-(Pyrimidin-5-yl)phenyl)-5-(2-(2,2,2-trifluoroethoxy)pyridin-4-yl)-5H-pyrrolo[3,4-b]pyridin-7-amine 0.2 acetic acid], the IC50 was 1600 nM. As to `NC1=NC(c2cccc(-c3cncnc3)c2)(c2ccnc(OC=C(F)F)c2)c2cccnc21` (stereo not shown) [Example 17, 5-(2-(2,2-Difluorovinyloxy)pyridin-4-yl)-5-(3-(pyrimidin-5-yl)phenyl)-5H-pyrrolo[3,4-b]pyridin-7-amine 0.2 acetic acid], half-maximal inhibition (IC50) required 1140 nM. The IC50 values of the last two compounds are within 1.5-fold of each other. The compound `NC1=NC(c2cccc(-c3cncnc3)c2)(c2ccc(OC(F)F)c(F)c2)c2cccnc21` (stereo not shown) [Example 18, 5-(4-(Difluoromethoxy)-3-fluorophenyl)-5-(3-(pyrimidin-5-yl)phenyl)-5H-pyrrolo[3,4-b]pyridin-7-amine] displayed an IC50 of 204 nM. Consider `COc1ccnc(-c2cccc(C3(c4ccnc(C(F)(F)F)c4)N=C(N)c4ncccc43)c2)c1` (stereo not shown) [Example 19, 5-(3-(4-methoxypyridin-2-yl)phenyl)-5-(2-(trifluoromethyl)pyridin-4-yl)-5H-pyrrolo[3,4-b]pyridin-7-amine], for which the IC50 was found to be 359 nM. Against the preceding compound, the IC50 is about 1.8-fold higher. For the compound `Cc1cc(C2(c3cccc(-c4cncnc4)c3)N=C(N)c3ncccc32)cc(C(F)F)n1` (stereo not shown) [Example 20, 5-(2-(Difluoromethyl)-6-methylpyridin-4-yl)-5-(3-(pyrimidin-5-yl)phenyl)-5H-pyrrolo[3,4-b]pyridin-7-amine], inhibition was half-maximal at 445 nM (IC50). The IC50 values of the last two compounds are within 1.5-fold of each other. `NC1=NC(c2cccc(-c3cncc(Cl)c3)c2)(c2ccnc(C(F)(F)F)c2)c2cccnc21` (stereo not shown) [Example 21, 5-(3-(5-Chloropyridin-3-yl)phenyl)-5-(2-(trifluoromethyl)pyridin-4-yl)-5H-pyrrolo[3,4-b]pyridin-7-amine] returned an IC50 of 239 nM. `N#Cc1ccnc(-c2cccc(C3(c4ccnc(C(F)(F)F)c4)N=C(N)c4ncccc43)c2)c1` (stereo not shown) [Example 22, 2-(3-(7-Amino-5-(2-(trifluoromethyl)pyridin-4-yl)-5H-pyrrolo[3,4-b]pyridin-5-yl)phenyl)isonicotinonitrile] returned an IC50 of 1800 nM. The same measure for `COc1ccc(C2(c3cccc(-c4cnccn4)c3)N=C(N)c3ncccc32)cc1C(F)F` (stereo not shown) [Example 23, 5-(3-(difluoromethyl)-4-methoxyphenyl)-5-(3-(pyrazin-2-yl)phenyl)-5H-pyrrolo[3,4-b]pyridin-7-amine]: 288 nM; for `COc1ccc(C2(c3cccc(-c4cncnc4)c3)N=C(N)c3ncccc32)cc1C(F)F` (stereo not shown) [Example 24, 5-(3-(Difluoromethyl)-4-methoxyphenyl)-5-(3-(pyrimidin-5-yl)phenyl)-5H-pyrrolo[3,4-b]pyridin-7-amine]: 212 nM. As to `Cc1cc(C2(c3cccc(-c4cncnc4)c3)N=C(N)c3ncccc32)cc(C)c1OCF` (stereo not shown) [Example 26, 5-(4-(Fluoromethoxy)-3,5-dimethylphenyl)-5-(3-(pyrimidin-5-yl)phenyl)-5H-pyrrolo[3,4-b]pyridin-7-amine], inhibition was half-maximal at 42 nM (IC50).

For the compound `Cc1cc(C2(c3cccc(-c4cnccn4)c3)N=C(N)c3ncccc32)cc(C)c1OCF` (stereo not shown) [Example 27, 5-(4-(Fluoromethoxy)-3,5-dimethylphenyl)-5-(3-(pyrazin-2-yl)phenyl)-5H-pyrrolo[3,4-b]pyridin-7-amine], the IC50 was 90 nM. For the compound `NC1=NC(c2cccc(-c3cncnc3)c2)(c2ccnc(OCCCF)c2)c2cccnc21` (stereo not shown) [Example 28, 5-(2-(3-Fluoropropoxy)pyridin-4-yl)-5-(3-(pyrimidin-5-yl)phenyl)-5H-pyrrolo[3,4-b]pyridin-7-amine], the IC50 was found to be 1560 nM. With `Cc1cc(C2(c3ccnc(-c4cncnc4)c3)N=C(N)c3ncccc32)cc(C)c1OC(F)F` (stereo not shown) [Example 29, 5-(4-Difluoromethoxy-3,5-dimethyl-phenyl)-5-(2-pyrimidin-5-yl-pyridin-4-yl)-5H-pyrrolo[3,4-b]pyridin-7-ylamine], the midpoint of inhibition, the IC50, lay at 106 nM. Compound `Cc1cc(C2(c3ccnc(-c4cncnc4)c3)N=C(N)c3ncccc32)cc(C2CC2)c1OC(F)F` (stereo not shown) [Example 30, 5-(3-Cyclopropyl-4-difluoromethoxy-5-methyl-phenyl)-5-(2-pyrimidin-5-yl-pyridin-4-yl)-5H-pyrrolo[3,4-b]pyridin-7-ylamine] showed a 50% inhibitory concentration (IC50) of 119 nM.
